From patent US10681909B2, “Herbicidal triazoles” (FMC Corporation, priority 2014, dated 2020)

What was measured:
[1] = test system: barnyardgrass; experiment: Test A preemergence; format: in vivo, Echinochloa crus-galli; details: 0 to 100 scale (0 no effect, 100 complete control)
How it was run: (§1)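 Herbicidal response was scored on plants treated pre- or postemergence with surfactant-containing, non-phytotoxic solvent formulations. Preemergence meant a directed spray onto soil (loam–sand) holding sown seed; postemergence plants were at one to two leaves.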

[2] = test system: foxtail, giant; experiment: Test A preemergence; format: in vivo, Setaria faberii; details: 0 to 100 scale (0 no effect, 100 complete control)
How it was run: as §1

[3] = test system: pigweed; experiment: Test A postemergence; format: in vivo, Amaranthus retroflexus; details: 0 to 100 scale (0 no effect, 100 complete control), approx. 10 d
How it was run: as §1

[4] = test system: wheat; experiment: Test A postemergence; format: in vivo, Triticum aestivum; details: 0 to 100 scale (0 no effect, 100 complete control), approx. 10 d
How it was run: as §1

[5] = test system: sedge, umbrella; experiment: Test B flooded paddy test; format: in vivo, Cyperus difformis; details: 250 g ai/ha, applied to paddy water at 2-leaf stage, visual rating after 13 to 15 d, scale 0 (no effect) to 100 (complete control)
How it was run: (§2)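 Pots were flooded to 3 cm above the soil at treatment, and compounds were applied directly into the paddy water. That depth was held throughout. After 13 to 15 d in a greenhouse, plants were rated visually against untreated controls.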

[6] = test system: barnyardgrass; experiment: Test B flooded paddy test; format: in vivo, Echinochloa crus-galli; details: 250 g ai/ha, applied to paddy water at 2-leaf stage, visual rating after 13 to 15 d, scale 0 (no effect) to 100 (complete control)
How it was run: as §2

[7] = test system: galium; experiment: Test C postemergence; format: in vivo, Galium aparine
From the text: (§3) Seeds of plant species selected from blackgrass (Alopecurus myosuroides), ryegrass, Italian (Italian ryegrass, Lolium multiflorum), wheat (winter wheat, Triticum aestivum), galium (catchweed bedstraw, Galium aparine), corn (Zea mays), crabgrass, large (large crabgrass, Digitaria sanguinalis), foxtail, giant, (giant foxtail, Setaria faberii), johnsongrass (Sorghum halepense), lambsquarters (Chenopodium album), morningglory (Ipomoea coccinea), nutsedge, yellow (yellow nutsedge, Cyperus esculentus), pigweed (Amaranthus retroflexus), ragweed (common ragweed, Ambrosia elatior), soybean (Glycine max), barnyardgrass (Echinochloa crus-galli), oilseed rape (Brassica napus), waterhemp (common waterhemp, Amaranthus rudis), and velvetleaf (Abutilon theophrasti) were planted into a blend of loam soil and sand and treated preemergence with test chemicals formulated in a non-phytotoxic solvent mixture which included a surfactant. At the same time, plants selected from these crop and weed species and also chickweed (common chickweed, Stellaria media), oat, wild (wild oat, Avena fatua), and kochia (Kochia scoparia), were planted in pots containing Sunshine Redi-Earth® planting medium comprising spaghnum peat moss, vermiculite, starter nutrients and dolomitic limestone and treated with postemergence applications of test chemicals formulated in the same manner. Plants ranged in height from 2 to 18 cm (1- to 4-leaf stage) for postemergence treatments. […] A dash (-) response means no test result.

[8] = test system: corn; experiment: Test C postemergence; format: in vivo, Zea mays
From the text: as §3

[9] = test system: crabgrass, large; experiment: Test C postemergence; format: in vivo, Digitaria sanguinalis
From the text: as §3

[10] = test system: lambsquarters; experiment: Test C postemergence; format: in vivo, Chenopodium album
From the text: as §3

[11] = test system: morningglory; experiment: Test C postemergence; format: in vivo, Ipomoea coccinea
From the text: as §3

[12] = test system: soybean; experiment: Test C postemergence; format: in vivo, Glycine max
From the text: as §3

[13] = test system: waterhemp; experiment: Test C postemergence; format: in vivo, Amaranthus rudis
From the text: as §3

| SMILES | Plant response rating, Barnyardgrass ([1]; 125 g ai/ha) | Plant response rating, Foxtail, Giant ([2]; 125 g ai/ha) | Plant response rating, Pigweed ([3]; 125 g ai/ha) | Plant response rating, Wheat ([4]; 125 g ai/ha) | Plant response rating, Sedge, Umbrella, Flood [5] | Plant response rating, Barnyardgrass, Flood [6] | Plant response rating (scale of 0 to 100 where 0 is no effect and 100 is complete control) ([7]; 31 g ai/ha) | Plant response rating (scale of 0 to 100 where 0 is no effect and 100 is complete control) ([7]; 62 g ai/ha) | Plant response rating (scale of 0 to 100 where 0 is no effect and 100 is complete control) ([7]; 125 g ai/ha) | Plant response rating (scale of 0 to 100 where 0 is no effect and 100 is complete control) ([7]; 250 g ai/ha) | Plant response rating (scale of 0 to 100 where 0 is no effect and 100 is complete control) ([8]; 31 g ai/ha) | Plant response rating (scale of 0 to 100 where 0 is no effect and 100 is complete control) ([8]; 62 g ai/ha) | Plant response rating (scale of 0 to 100 where 0 is no effect and 100 is complete control) ([8]; 125 g ai/ha) | Plant response rating (scale of 0 to 100 where 0 is no effect and 100 is complete control) ([8]; 250 g ai/ha) | Plant response rating (scale of 0 to 100 where 0 is no effect and 100 is complete control) ([9]; 31 g ai/ha) | Plant response rating (scale of 0 to 100 where 0 is no effect and 100 is complete control) ([9]; 62 g ai/ha) | Plant response rating (scale of 0 to 100 where 0 is no effect and 100 is complete control) ([9]; 125 g ai/ha) | Plant response rating (scale of 0 to 100 where 0 is no effect and 100 is complete control) ([9]; 250 g ai/ha) | Plant response rating (scale of 0 to 100 where 0 is no effect and 100 is complete control) ([10]; 31 g ai/ha) | Plant response rating (scale of 0 to 100 where 0 is no effect and 100 is complete control) ([10]; 62 g ai/ha) | also measured |
| --- | --- | --- | --- | --- | --- | --- | --- | --- | --- | --- | --- | --- | --- | --- | --- | --- | --- | --- | --- | --- | --- |
| CCCOc1nc(-c2ccccc2)nn1Cc1ccnc(C(F)(F)F)c1 [Compound 33] | 50 | 90 | 100 | 0 | 85 | 0 | 55 | 60 | 75 | 80 | 25 | 30 | 25 | 25 | 5 | 10 | 10 | 15 | 80 | 85 | Plant response rating, Barnyardgrass ([1]; 500 g ai/ha, approx. 10 d): 80; Plant response rating, Foxtail, Giant ([2]; 500 g ai/ha, approx. 10 d): 100; Plant response rating, Pigweed ([3]; 500 g ai/ha): 100; Plant response rating, Wheat ([4]; 500 g ai/ha): 30; Plant response rating (scale of 0 to 100 where 0 is no effect and 100 is complete control) ([10]; 125 g ai/ha): 85; Plant response rating (scale of 0 to 100 where 0 is no effect and 100 is complete control) ([10]; 250 g ai/ha): 90; Plant response rating (scale of 0 to 100 where 0 is no effect and 100 is complete control) ([11]; 31 g ai/ha): 55; Plant response rating (scale of 0 to 100 where 0 is no effect and 100 is complete control) ([11]; 62 g ai/ha): 80; Plant response rating (scale of 0 to 100 where 0 is no effect and 100 is complete control) ([11]; 125 g ai/ha): 85; Plant response rating (scale of 0 to 100 where 0 is no effect and 100 is complete control) ([11]; 250 g ai/ha): 75; Plant response rating (scale of 0 to 100 where 0 is no effect and 100 is complete control) ([12]; 31 g ai/ha): 25; Plant response rating (scale of 0 to 100 where 0 is no effect and 100 is complete control) ([12]; 62 g ai/ha): 35; Plant response rating (scale of 0 to 100 where 0 is no effect and 100 is complete control) ([12]; 125 g ai/ha): 55; Plant response rating (scale of 0 to 100 where 0 is no effect and 100 is complete control) ([12]; 250 g ai/ha): 65; Plant response rating (scale of 0 to 100 where 0 is no effect and 100 is complete control) ([13]; 31 g ai/ha): 80; Plant response rating (scale of 0 to 100 where 0 is no effect and 100 is complete control) ([13]; 62 g ai/ha): 95; Plant response rating (scale of 0 to 100 where 0 is no effect and 100 is complete control) ([13]; 125 g ai/ha): 95; Plant response rating (scale of 0 to 100 where 0 is no effect and 100 is complete control) ([13]; 250 g ai/ha): 95 |
| COc1nc(-c2ccc(C(F)(F)F)cc2)nn1Cc1ccnc(C(F)(F)F)c1 [Compound 25] | 70 | 100 | 100 | 20 | 95 | 35 | 80 | 90 | 90 | 90 | 20 | 20 | 25 | 25 | 15 | 20 | 30 | 45 | 90 | 90 | Plant response rating, Barnyardgrass ([1]; 31 g ai/ha): 10; Plant response rating, Foxtail, Giant ([2]; 31 g ai/ha): 70; Plant response rating, Pigweed ([3]; 31 g ai/ha): 90; Plant response rating, Wheat ([4]; 31 g ai/ha): 10; Plant response rating (scale of 0 to 100 where 0 is no effect and 100 is complete control) ([10]; 125 g ai/ha): 98; Plant response rating (scale of 0 to 100 where 0 is no effect and 100 is complete control) ([10]; 250 g ai/ha): 98; Plant response rating (scale of 0 to 100 where 0 is no effect and 100 is complete control) ([11]; 31 g ai/ha): 90; Plant response rating (scale of 0 to 100 where 0 is no effect and 100 is complete control) ([11]; 62 g ai/ha): 85; Plant response rating (scale of 0 to 100 where 0 is no effect and 100 is complete control) ([11]; 125 g ai/ha): 75; Plant response rating (scale of 0 to 100 where 0 is no effect and 100 is complete control) ([11]; 250 g ai/ha): 95; Plant response rating (scale of 0 to 100 where 0 is no effect and 100 is complete control) ([12]; 31 g ai/ha): 45; Plant response rating (scale of 0 to 100 where 0 is no effect and 100 is complete control) ([12]; 62 g ai/ha): 70; Plant response rating (scale of 0 to 100 where 0 is no effect and 100 is complete control) ([12]; 125 g ai/ha): 50; Plant response rating (scale of 0 to 100 where 0 is no effect and 100 is complete control) ([12]; 250 g ai/ha): 65; Plant response rating (scale of 0 to 100 where 0 is no effect and 100 is complete control) ([13]; 31 g ai/ha): 95; Plant response rating (scale of 0 to 100 where 0 is no effect and 100 is complete control) ([13]; 62 g ai/ha): 95; Plant response rating (scale of 0 to 100 where 0 is no effect and 100 is complete control) ([13]; 125 g ai/ha): 98; Plant response rating (scale of 0 to 100 where 0 is no effect and 100 is complete control) ([13]; 250 g ai/ha): 95 |
